One compound from patent US7019028B2, “Endiandric acid H and its derivatives, process for their preparation and use thereof” (Aventis Pharma Deutschland GmbH, priority 2002, dated 2006) can be followed below.

SMILES strings stand for the structures.

As a reminder, the IC50 is the concentration needed to halve the response being measured.

Series [1] in a line: Solubility (characterization of endiandric acid H). It counts as physicochemical.
The target in another series is T1, c-maf (Mus musculus, UniProt P54843).
T1 construct: expressed in transfected cells; host or cells: CHO-K1 (monoclonal line c-maf/IL-4 luc/NFAT)
T1 sequence (P54843 1-370): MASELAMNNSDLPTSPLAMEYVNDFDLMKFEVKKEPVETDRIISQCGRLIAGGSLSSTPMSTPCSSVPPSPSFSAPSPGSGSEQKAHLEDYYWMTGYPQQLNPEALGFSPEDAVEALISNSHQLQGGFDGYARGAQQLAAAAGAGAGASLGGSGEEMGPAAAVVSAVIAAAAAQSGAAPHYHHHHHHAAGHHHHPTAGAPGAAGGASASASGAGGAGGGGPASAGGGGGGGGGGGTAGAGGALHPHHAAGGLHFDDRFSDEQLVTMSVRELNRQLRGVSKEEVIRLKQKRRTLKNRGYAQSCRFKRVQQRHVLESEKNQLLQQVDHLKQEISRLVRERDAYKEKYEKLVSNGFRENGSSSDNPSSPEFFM
In words: Bioassay: human IL-4 promoter/luciferase reporter in c-maf/IL-4 luc/NFAT CHO-K1 cell line. It counts as cell-based, murine. Particulars: CHO-K1 cells with c-maf/IL-4 luc/NFAT vectors, 8 hours incubation; read-out: IC50 in the bioassay (inhibition of luciferase expression). As to the method: The zipper protein c-maf represents the assay target. It plays an important part in the release of mediators of inflammation, especially IL-4, and thus in the manifestation of inflammatory symptoms in asthma and allergies. c-maf is thus an important therapeutic target molecule for asthma, especially if it has an allergic cause. The activity of c-maf is measured in the assay on the basis of the IL-4 transcription rate. Compounds which interfere with the binding of the two transcription factors c-maf and NFAT lead in this case to a reduced expression of luciferase (read-out) through suppression of the transcription of a human IL-4 promoter/luciferase construct. […]
16 hours before the assay, CHO-K1 cells were harvested by trypsinization, washed once with PBS without Ca and Mg, resuspended in Ham's F-12 medium which additionally contained 10% fetal calf serum, 1% antibiotic/antimycotic, 0.001% Pluronic, 300 μg/ml Geneticin and 300 μg/ml Zeocin, and then quantified using a hemocytometer. […]
After the incubation time, the cells are in each case mixed with 3 μl of Bright-Glow™ luciferase assay reagent (Promega Corporation, Madison, USA) per well. The plates are then placed in the dark for 30 minutes and subsequently measured in a CyBiTM Lumax reader. […]
The inhibition was calculated as follows: [1−(LCSsample−LCSposcontr)/(LCSnegcontr−LCSposcontr)]×100(%)
(In general: A reporter such as luciferase makes a cellular process visible.)

A short description of series [2]: Stability in the solid state and in solution. It counts as physicochemical. Conditions: solid state; solutions in the pH range between 3 and 8, in particular 4 and 6.

As to `O=C(O)C[C@@H]1[C@H]2C=C[C@H]3C(c4ccc5c(c4)OCO5)=C[C@@H](O)[C@@H]4C[C@H]1[C@@H]2[C@H]43` [Endiandric acid H, endiandric acid H], in series [1] (polar organic solvents), the “Solubility in polar organic solvents” value is on record as “soluble in polar organic solvents”. For the same compound, the Solubility in water entry in series [1] (water) is on record as “only slightly soluble in water”. For the same compound, at c-maf, the 50% inhibitory concentration (IC50) amounted to 1500 nM. The Stability entry in series [2] was “stable in the solid state and in solutions in the pH range between 3 and 8”.
